This is an account of results in a melting point compilation (Tetko et al.; mined from patent text by program, amines drawn as free bases though some values may be those of a salt).

Molecules are shown by their SMILES.

Turning to `Cc1ccc(-c2c(NS(=O)(=O)c3ccc(C(C)(C)C)cc3)ncnc2OCCOc2ccc(NC(=O)c3ccccc3)cn2)cc1`, the melting point was in the range of 173 to 174 °C.
With `COc1ccc(-c2nn3c(S(C)=O)nnc3c3ccccc23)cc1` (stereo not given), the melting point amounted to 201 °C.
For `COc1ccc(SSc2ccc(OC)cc2C(=O)NC(CC(C)C)C(=O)O)c(C(=O)NC(CC(C)C)C(=O)O)c1` (stereo not given), the melting point is 168 to 169 °C.
Compound `N#Cc1ccc(C(O)c2occc(=O)c2OCc2ccccc2)cc1` (stereo not given) gave a melting point of 135 to 138 °C.
`N#Cc1cc(C(=O)O)n(/C=C/c2ccccc2)c1` returned a melting point of 166 to 168 °C.
Under `O=C(Nc1ccc2ccc(Cl)nc2n1)N1CC=CCC1` stands 173 °C; under `COc1cc2[nH]ccc(=O)c2cc1OC`, 120 to 122 °C.
Under `CCCCc1ncc(C=C2C(=O)Nc3ccccc32)n1Cc1ccc(C(=O)OC)cc1Cl` stands 219 to 220 °C; under `CCCNCc1cccc(OCCCNc2nc(N)nn2C)c1`, 79 to 81 °C; under `C(=Cc1cccc2ccccc12)c1ccc(-c2cc3ccccc3o2)cc1`, 154 to 155 °C.
The figure for `Cc1ccnc(N2CCN(CCc3c(C)n4c5c(cc(Br)cc35)CCC4)CC2)c1` is 200 °C; for `CCc1sc(-c2cc[nH]n2)c2c1C(=O)CC(C)(C)C2` it is 152 to 155 °C.
`Cc1oc(-c2ccccc2)nc1CCc1noc2cc(CC(Sc3ccccc3)C(=O)O)ccc12` (stereo not given) had a melting point of 145 to 147 °C.
The figure for `CNCc1nc(C(=O)NC)c2n1-c1ccc(Cl)cc1C(c1ccccc1Cl)=NC2` is 270 to 273 °C.
The figure for `CCCOCc1cc(OC)c(-c2ccc(C[C@H](NC(=O)c3c(Cl)cccc3Cl)C(=O)O)cc2)c(OC)c1` is 183 to 186 °C.
Compound `CC(C)(C)c1cc(C(=O)c2c[nH]c(SC#N)c2)cc(C(C)(C)C)c1O` registered a melting point of 230 to 231 °C.
`COc1cn(-c2ccc(-n3cccn3)cc2F)nc(-c2ccnn2-c2cccc(OC(F)(F)F)c2)c1=O` displayed a melting point of 148 to 150 °C.
The figure for `O=C(NCCCCCCCCc1ccccc1)c1cc(-c2cccc(C(F)(F)F)c2)cc(-c2cccc(C(F)(F)F)c2OCCCCc2nnn[nH]2)c1` is 145 to 151 °C.
For the compound `c1cc(P(CCP(c2ccncc2)c2ccncc2)c2ccncc2)ccn1`, the melting point lay within 183 to 185 °C.
Under `Nc1ccc(N(CCO)C(=O)OCc2ccccc2)c(O)c1` stands 142 °C; under `O=C1c2ccccc2C(O)(c2ccc(F)cc2)C2=NCCCN12` (stereo not given), 126 to 128 °C.
Under `COC(=O)Cc1ccccc1[C@@H]1O[C@H]1c1ccccc1` (relative stereo) stands 118 to 119 °C.
As for `COc1cccc(NC(=O)c2ccc(C)cc2)c1C(C)=O`, the melting point came out at 48 °C.
The figure for `O=C(O)C1CC(=Cc2ccccc2)CC1C(=O)O` (stereo not given) is 172 °C; for `CN1CCN(Cc2cc(-c3ccc4c(c3)CCO4)nn(CC=Cc3ccc(Cl)cc3)c2=O)CC1` it is 112 to 113 °C; for `C=C1C=Cc2cc(C(=O)O)ccc2OC1` it is 188 °C.
The figure for `N#Cc1nn(-c2c(Cl)cc(C(F)(F)F)cc2Cl)c(-n2ccnc2)c1S(=O)(=O)C(F)(F)F` is 214 to 215 °C; for `COc1ccc(/C=C/C(=O)/C=C/c2ccc(OC)c(O)c2)cc1O` it is 195 to 197 °C; for `CC1CCc2c(N3CCC(N(C)C)CC3)c(F)cc3c(=O)c(C(=O)O)cn1c23` (stereo not given) it is 259 to 261 °C.
Under `CNC(=O)c1cc(OC)c(C(=O)NC)c(NC(=O)CCl)c1OC` stands 228 to 229 °C; under `CCOC(=O)C(=CNc1ccc2c(c1)N1CCN=C1S2)C(=O)OCC`, 140 °C; under `CC(C)NC(=O)c1cc(-n2c(=O)cc(C(F)(F)F)[nH]c2=O)c(F)cc1Cl`, 234 to 239 °C.
The compound `CCCCCCOC(=O)C1=C(C)NN=C(c2ccccc2)C1c1cccc(Cl)c1` (stereo not given) gave a melting point of 103 °C.
Under `Cc1cc(Oc2ccccc2)c(NC(=O)OCc2ccccc2)c(=O)n1CC(=O)O` stands 108 to 110 °C; under `CCN(C(=O)N1CCN(c2cc(OC)cc(OC)c2)CC1)c1nc2ccccc2nc1OC`, 129 to 130 °C.
Under `COC(=O)CCCc1cc2nc(Cl)ccc2n1S(=O)(=O)c1ccc(Cl)cc1Cl` stands 100 to 101 °C.
The figure for `N#Cc1oc2c(sc3ccccc32)c1O` is 174 to 175 °C; for `O=C1CCOc2c(Cl)cc(Br)cc21` it is 109 °C; for `C1=CC(CCC2c3ccccc3-c3ccccc32)c2ccccc21` (stereo not given) it is 79 to 80 °C.
As for `CC(=O)Nc1c(OC(C)=O)cc2c(c1[N+](=O)[O-])CCC2`, the melting point was in the range of 168 to 170 °C.
Under `CCCCC1(O)c2cc(NC(=O)CC(C)(C)C)c(C)c(C)c2OC1(C)C` (stereo not given) stands 161 to 162 °C; under `COc1cccc2c(=O)c(-c3cccc(C(F)(F)F)c3F)nn(CCCNS(C)(=O)=O)c12`, 62 to 64 °C.
Under `COc1cc(C(=O)C#CCO)cc(OC)c1OC` stands 104 to 105 °C; under `Cn1c2nc3ccccc3nc2c2cccc(CO)c21`, 237 to 238 °C.
The figure for `N#CCNC(=O)C(F)(F)F` is 39 to 40 °C.
`O=C1CCCN1c1cc(-c2ccnc(Nc3cccc(Cl)c3)n2)ccn1` yielded a melting point of 165 to 166 °C.
The figure for `COc1cccc2nc3c(c(N)c12)CCCC3` is 187 to 188 °C.
The figure for `CCOCc1nc2c(N)nc3c(c2n1CC1(O)CCCC1)CCCC3` is 171 to 173 °C; for `O=S1(=O)NCNc2c(Cl)cc(Cl)cc21` it is 149 to 151 °C.
With `CC(C)(C)C1=CC(=CC#Cc2ccc(C(=O)O)cc2)C=C(C(C)(C)C)C1=O`, the melting point was 216 to 218 °C.
The figure for `Cc1cc(C(=O)NCCO)ncc1C(c1cc(F)ccc1F)S(=O)(=O)c1cc(F)cc(F)c1` (stereo not given) is 82 to 84 °C.
The figure for `CCCCCCCCCCCCCCCCCCOc1cc(NC(=O)OCc2ccccc2)cc(OC(C)=O)c1` is 57 to 59 °C.
Under `O=c1oc(-c2cc(C(F)(F)F)cc(C(F)(F)F)c2)cc(O)c1Cc1ccccc1` stands 80 to 82 °C; under `CN1Cc2ccc3c(c2C1)NC(=O)C3=NO`, 242 to 244 °C.
The compound `CCOC(=O)c1cc2cc(OC(F)(F)F)cc(NS(=O)(=O)c3cccs3)c2[nH]1` returned a melting point of 192 to 193 °C.
The figure for `COc1cc2c(ccn2S(C)(=O)=O)cc1Br` is 126 to 129 °C.
Under `O=C(O)C1CCCN1C(=O)COc1ccccc1` (stereo not given) stands 109 to 111 °C; under `CCC(=O)c1cc(Br)no1`, 35 to 37 °C.
The figure for `O=C(O)C12CC(c3ccccc31)c1ccccc12` is 200 °C; for `O=Cc1c(-c2ccccc2)nc2sc3c(n12)CCCC3` it is 150 °C.
`O=C(O)CCSC1c2cc(OCc3ccc4ccc(Cl)cc4n3)ccc2OCc2c(-c3nnn[nH]3)cccc21` (stereo not given) yielded a melting point of 122 to 125 °C.
Under `O=C(Cn1c(-c2ccc(Cl)cc2)nc2cccnc21)N1CCSC1` stands 215 to 218 °C; under `CN(C(=O)COc1onc(C(F)(F)F)c1-c1ccccc1)c1ccccc1`, 93 to 94 °C; under `O=[N+]([O-])c1ccccc1Oc1ccc(Cl)cc1Cl`, 54 to 55 °C.
Under `C=Cc1cc(O)cc2nc(-c3ccc(O)cc3)oc12` stands 249 to 250 °C; under `CCOC(=O)C1Cc2cc3c(CC)noc3c(Cl)c2O1` (stereo not given), 95 to 96 °C; under `CCc1cccc(CC)c1-n1cnc(N)nc1=O`, 136 to 138 °C.
In turn, `CC(C)(C)OC(=O)C(Cl)=CC1C(C(=O)OC(C#N)c2ccc(F)c(Oc3ccccc3)c2)C1(C)C` (stereo not given) showed a melting point of 94 °C.
Under `COC(=O)c1cccc(C=O)c1O` stands 82 to 84 °C.
Under `CC(=O)NC1C(OCc2ccccc2)OC(COCc2ccccc2)C(OCc2ccccc2)C1OCC(O)CO` (stereo not given) stands 165 to 166 °C.
Under `O=C(Cc1cc(F)ccc1[N+](=O)[O-])N1CCN(c2nsc3ccccc23)CC1` stands 72 °C; under `N#CCCN1CCC2C(C1)c1ccccc1N2c1ccccc1` (stereo not given), 108 °C.
The compound `COc1cc(/C=C/c2ccc(N)cc2)cc(OC)c1OC` gave a melting point of 251 to 253 °C.
The figure for `CC(C)(C)SC[C@H](NC(=O)C(CS)Cc1ccccc1)C(=O)O` (stereo not given in full) is 68 to 75 °C.
Under `Clc1ccc(-n2cccn2)cc1` stands 50 to 53 °C; under `COc1ccc2c(c1OC)CCC(NC(C)=O)C2O` (stereo not given), 184 to 186 °C.
Under `COc1c2c(cc3ccccc13)CCC(C(=O)O)C2` (stereo not given) stands 192 °C; under `COc1ccc(C(=O)Nc2ccc(C(C)(C)C#N)c(-c3cncnc3)c2)cc1OC`, 198 to 200 °C.
With `Cc1nc(N)c2nc3n(c2c1C)C(C)COC3` (stereo not given), the melting point lay in the range of 264 to 267 °C.
Under `CSC(=C[N+](=O)[O-])NCCCBr` stands 92 to 92.5 °C; under `CCN(CC)CCCNc1nnc(C)c2c1cc1n2CCCC1`, 171 to 172 °C; under `CCCCOC(CCN)(c1ccccc1)c1ccccc1`, 50 to 54 °C.
The figure for `CCOC(Cc1ccc(NCCCC2=CCC(NS(C)(=O)=O)(OC(C)(C)C)C=C2)cc1)C(=O)O` (stereo not given) is 78 to 80 °C; for `CCOc1ccc(-c2ccc3c(c2)C=C(C(=O)Nc2ccc(CN(C)C4CCOCC4)cc2)CCS3(=O)=O)cc1Cl` it is 201 to 204 °C.
The figure for `Cn1c(C=[N+](C)[O-])cnc1[N+](=O)[O-]` is 208 to 209 °C; for `O=C(O)CC1CCC2CC(=O)NC12` (stereo not given) it is 186 to 189 °C.
`c1csc(CNc2nccc3ccccc23)c1` displayed a melting point of 86.5 to 87.5 °C.
Under `N#CC=C1CCc2ccc3ncoc3c21` stands 166 to 168 °C; under `Cc1sc2c(c1C)CNC(Cl)=N2`, 170 to 172 °C; under `COc1cc(OC)c(-c2cc3ccccc3n2C)cc1C=CC(=O)c1ccc(S(=O)(=O)NCCN2CCOCC2)cc1`, 167 to 168 °C.
